In patent US20250127913A1, “BIFUNCTIONAL FOLATE RECEPTOR BINDING COMPOUNDS” (LYCIA THERAPEUTICS, INC., priority 2021, published 2025):
Where two headings read alike, the source gives them in different places.

Columns and labels:
[1] = target: TNFα trimer (Homo sapiens, UniProt P01375); assay: SPR binding kinetics of compounds to TNFα trimer; conditions: for Kd: class symbols; for koff: read-out: kd
Method: Streptavidin 100 μg/mL Streptavidin (Invitrogen Cat #: 434302) diluted in 10 mM sodium acetate, pH 4.5) was immobilized to both the reference and active surfaces as described in Example 51. The surfaces were conditioned with three injections of running Buffer (10 mM HEPES, 150 mMNaCl, 0.05% T20, pH 7.5, 2% DMSO) at a flow rate of 10 μL/min, Contact time: 60 s. Flow rate: 10 μL/min. The active surface was treated with biotinylated linked TNFα trimer 20 μg/mL diluted in running buffer at a flow rate of 5 μL/min contact time: 600 s, yielding a final response of ˜3000 RU. Example compounds were then serially diluted 1:1 in running buffer (10 mM HEPES, 150 mM NaCl, 0.05% T20, pH 7.5, 2% DMSO) from 30 uM to 937.5 nM and flowed over the active and reference surfaces from lowest concentration to greatest concentration in the single-cycle kinetics format, and then allowed to dissociate in running buffer for 7200 s, at 30 μL/min. Sensorgrams were solvent corrected, double-referenced, and the data fitted and analyzed in Biacore Insight Evaluation Software Version 3.0.11.15423.

[2] = test system: THP-1 cells; assay: Compound mediated uptake of TNFα-pHrodo in THP-1 cells (flow cytometry); format: cell-based; design: key to Uptake in THP1 cells (run) 2 / Uptake in THP1 cells (run) 3 / Uptake in THP1 cells (run) 4: + = ΔMFI less than that of I-17; ++ = ΔMFI ≈ to that of I-17; +++ = ΔMFI greater than that of I-17; conditions: ΔMFI compared with I-17, uptake at 10 μM
Method: THP-1 cells, a monocytic leukemia cell line that endogenously express folate receptor beta, were used as a model system to measure example compound stimulated uptake of in-house produced TNFα conjugated to the pH sensitive fluorescent dye pHrodo green (ThermoFisher Scientific #P35369).
THP-1 cells were maintained in RPMI (Gibco #61870143) with 10% v/v FBS (VWR #89510-188) with 2 mM L-alanyl-L-glutamine dipeptide, 100 units/ml penicillin and 100 μg/ml streptomycin (Gibco #15140148). Cells were pelleted, resuspended in folate-free RPMI (Gibco #27016021) and seeded at 50,000 cells per well of a 96 well plate. Example compound was added to each well as a log 2 dilution series ranging from 20 μM to 125 nM final concentration. Cells were incubated for 24 hrs and washed/resuspended in phosphate buffered saline (pH 7.4) with 1% w/v BSA. Uptake was measured using a Novocyte Advanteon Flow Cytometer (Agilent Technologies) with the […] and FITC detection configuration.

[3] = target: FOLR2 (Homo sapiens (Human), UniProt P14207); assay: SPR binding kinetics of compounds to folate receptor (FOLR2 immobilized on CM5 chip)
FOLR2, sequence (P14207 17-255): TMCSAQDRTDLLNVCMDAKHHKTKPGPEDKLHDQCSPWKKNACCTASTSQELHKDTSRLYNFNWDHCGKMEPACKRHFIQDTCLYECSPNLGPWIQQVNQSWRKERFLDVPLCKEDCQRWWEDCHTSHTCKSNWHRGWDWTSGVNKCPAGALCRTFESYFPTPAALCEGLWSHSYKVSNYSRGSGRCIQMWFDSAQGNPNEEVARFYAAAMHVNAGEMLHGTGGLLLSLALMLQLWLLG
Method: A Biacore 8K+ was used to measure the association and dissociation rates of example compounds to FOLR2 (Acro Biosystems, Cat: F02-H5223-100 μg). Briefly, FOLR2 was reconstituted according to the manufacture's instructions to 200 μg/mL. Both the active and reference surfaces of a Cytiva CM5 Series S Sensor Chip were activated with a 1:1 mixture of 400 mM EDC and 100 mM NHS for 420 s at 10 μL/min. 25 μg/mL FOLR2 diluted in Sodium Acetate pH 5.5 was injected on the active channel (Flow Cell 2) for 420 s at 10p/min. Both the reference and active surfaces were then capped with 1M ethanolamine, pH 8.5 for 420 s, achieving an immobilization level of ˜4200 RU. Example compounds were serially diluted 1:1 in running buffer (10 mM HEPES, 150 mM NaCl, 0.05% T20, pH 7.5, 2% DMSO) from 100 nM to 3.125 nM and flowed over the active and reference surfaces for 120 s, and then allowed to dissociate in running buffer for 600 s, at 30 uL/min. The FOLR2 immobilized active surface and the reference surface were regenerated with a 30 s pulse of Sodium Acetate pH 5.5 at 30 μL/min. Sensorgrams were solvent corrected, double-referenced, and the data fitted and analyzed in Biacore Insight Evaluation Software Version 3.0.11.15423.

TNFα trimer, sequence (P01375 77-233 limits assumed): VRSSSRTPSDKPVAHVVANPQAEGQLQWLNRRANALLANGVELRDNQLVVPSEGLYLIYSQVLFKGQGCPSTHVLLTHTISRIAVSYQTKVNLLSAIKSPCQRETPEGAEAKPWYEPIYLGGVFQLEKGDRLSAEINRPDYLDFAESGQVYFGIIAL

SMILES	Kd [1] [nM]	Kd [3] [nM]	koff ([1]; SPR single cycle kinetics, TNFalpha trimer immobilized) [s⁻¹]	Uptake in THP1 cells (run) 2 [2]	Uptake in THP1 cells (run) 3 [2]	Uptake in THP1 cells (run) 4 [2]	koff [1] [s⁻¹]
Cc1nc2ccc(-c3cnc(OCCOCCn4cc(COCCOCCOCCOCCNC(=O)CC[C@H](NC(=O)c5ccc(NCc6cnc7nc(N)nc(O)c7n6)cc5)C(=O)O)nn4)nc3)cc2n1Cc1ccccc1OC(F)F [Compound I-24, (S)-18-(4-(((2-amino-4-hydroxypteridin-6-yl)methyl)amino)benzamido)-1-(1-(2-(2-((5-(1-(2-(difluoromethoxy)benzyl)-2-methyl-1H-benzo[d]imidazol-6-yl)pyrimidin-2-yl)oxy)ethoxy)ethyl)-1H-1,2,3-triazol-4-yl)-15-oxo-2,5,8,11-tetraoxa-14-azanonadecan-19-oic acid]	< 5000	0.4			+	+	
Cc1nc2ccc(-c3cnn(CCCCCCn4cc(COCCOCCOCCOCCNC(=O)CC[C@H](NC(=O)c5ccc(NCc6cnc7nc(N)nc(O)c7n6)cc5)C(=O)O)nn4)c3)cn2c1Cc1cc(Cl)ccc1Cl [Compound I-26, (S)-18-(4-(((2-amino-4-hydroxypteridin-6-yl)methyl)amino)benzamido)-1-(1-(6-(4-(3-(2,5-dichlorobenzyl)-2-methylimidazo[1,2-a]pyridin-6-yl)-1H-pyrazol-1-yl)hexyl)-1H-1,2,3-triazol-4-yl)-15-oxo-2,5,8,11-tetraoxa-14-azanonadecan-19-oic acid]	< 5000	0.2		+++	+	+	
Cc1nc2cc(F)c(-c3cnc(OCCCCCn4cc(COCCOCCNC(=O)CC[C@H](NC(=O)c5ccc(NCc6cnc7nc(N)nc(O)c7n6)cc5)C(=O)O)nn4)nc3)nc2c(N[C@H](C)c2cc(C#N)ccc2F)c1Cl [Compound I-16, N2-(4-(((2-amino-4-hydroxypteridin-6-yl)methyl)amino)benzoyl)-N5-(2-(2-((1-(5-((5-(7-chloro-8-((I-1-(5-cyano-2-fluorophenyl)ethyl)amino)-3-fluoro-6-methyl-1,5-naphthyridin-2-yl)pyrimidin-2-yl)oxy)pentyl)-1H-1,2,3-triazol-4-yl)methoxy)ethoxy)ethyl)-L-glutamine]	< 100	0.3		+++	+++	++	5.81e-05

Continued, in another order:

Kd [1] [nM]	Kd [3] [nM]	koff ([1]; SPR single cycle kinetics, TNFalpha trimer immobilized) [s⁻¹]	SMILES	Uptake in THP1 cells (run) 2 [2]	Uptake in THP1 cells (run) 3 [2]	Uptake in THP1 cells (run) 4 [2]	koff [1] [s⁻¹]
< 1000			Cc1nc2cc(F)c(-c3cnc(OCCCCCn4cc(COCCOCCOCCOCCNC(=O)CC[C@H](NC(=O)c5ccc(NCc6cnc7nc(N)nc(O)c7n6)cc5)C(=O)O)nn4)nc3)nc2c(N[C@H](C)c2cc(C#N)ccc2F)c1Cl [Compound I-17, (S)-18-(4-(((2-amino-4-hydroxypteridin-6-yl)methyl)amino)benzamido)-1-(1-(5-((5-(7-chloro-8-((I-1-(5-cyano-2-fluorophenyl)ethyl)amino)-3-fluoro-6-methyl-1,5-naphthyridin-2-yl)pyrimidin-2-yl)oxy)pentyl)-1H-1,2,3-triazol-4-yl)-15-oxo-2,5,8,11-tetraoxa-14-azanonadecan-19-oic acid]	++	++	+++	
< 100	0.5	3.65e-06	Nc1nc(O)c2nc(CNc3ccc(C(=O)N[C@@H](CCC(=O)NCCOCCOCCOCCOCc4cn(CCCCCOc5ccc(-c6ccc7nc(COc8cccc(N9CCCC9=O)c8)n(Cc8ccccc8OC(F)F)c7c6)cn5)nn4)C(=O)O)cc3)cnc2n1 [Compound I-25, (S)-18-(4-(((2-amino-4-hydroxypteridin-6-yl)methyl)amino)benzamido)-1-(1-(5-((5-(1-(2-(difluoromethoxy)benzyl)-2-((3-(2-oxopyrrolidin-1-yl)phenoxy)methyl)-1H-benzo[d]imidazol-6-yl)pyridin-2-yl)oxy)pentyl)-1H-1,2,3-triazol-4-yl)-15-oxo-2,5,8,11-tetraoxa-14-azanonadecan-19-oic acid]	+	+++	++	
< 100			Cc1nc2cc(F)c(-c3cnc(OCCCCCNC(=O)CC[C@H](NC(=O)c4ccc(NCc5cnc6nc(N)nc(O)c6n5)cc4)C(=O)O)nc3)nc2c(N[C@H](C)c2cc(C#N)ccc2F)c1Cl [Compound I-13, N2-(4-(((2-amino-4-hydroxypteridin-6-yl)methyl)amino)benzoyl)-N5-(5-((5-(7-chloro-8-(((R)-1-(5-cyano-2-fluorophenyl)ethyl)amino)-3-fluoro-6-methyl-1,5-naphthyridin-2-yl)pyrimidin-2-yl)oxy)pentyl)-L-glutamine]	+	++	++	
